Laboratory results as given in US7060822B1, “2-pyrazolin-5-ones” (Abbott GmbH & Co. KG, priority 1999, dated 2006).

CCOC(=O)C1=NNC(=O)C1=Cc1ccc[nH]1 [Example 104, 3-Ethoxycarbonyl-4-[(pyrrol-2-yl)methylene]-2-pyrazolin-5-one]
melting point: 177 to 179 °C

CC(C)C1=NNC(=O)C1=Cc1ccc[nH]1 [Example 105, 3-Isopropyl-4-[(pyrrol-2-yl)methylene]-2-pyrazolin-5-one]
melting point: 120 to 122 °C

O=C1NN=C(C2CCCCC2)C1=Cc1ccc[nH]1 [Example 107, 3-Cyclohexyl-4-[(pyrrol-2-yl)methylene]-2-pyrazolin-5-one]
melting point: 176 to 178 °C

O=C1NN=C(C2CC2)C1=Cc1ccc(CN2CCOCC2)[nH]1 [Example 109, 3-Cyclopropyl-4-[(5-morpholinomethylpyrrol-2-yl)methylene]-2-pyrazolin-5-one]
melting point: 184 to 186 °C

O=C1NN=C(C2CC2)C1=Cc1ccc(C(=O)O)[nH]1 [Example 110, 4-[(5-Carboxypyrrol-2-yl)methylene]-3-cyclopropyl-2-pyrazolin-5-one]
melting point: 220 °C (dec.)

CCOC1=NNC(=O)C1=Cc1cc(Cl)c[nH]1 [Example 111, 4-[(4-Chloropyrrol-2-yl)methylene]-3-ethoxy-2-pyrazolin-5-one]
melting point: 237 to 239 °C

CCOC1=NNC(=O)C1=Cc1cc(Br)c[nH]1 [Example 112, 4-[(4-Bromopyrrol-2-yl)methylene]-3-ethoxy-2-pyrazolin-5-one]
melting point: 242 to 244 °C

CCOC1=NNC(=O)C1=Cc1ccc(Cl)[nH]1 [Example 113, 4-[(5-Chloropyrrol-2-yl)methylene]-3-ethoxy-2-pyrazolin-5-one]
melting point: 170 to 172 °C

O=C1NN=C(C2CC2)C1=Cc1cc(Cl)c[nH]1 [Example 114, 4[(4-Chloropyrrol-2-yl)methylene]-3-cyclopropyl-2-pyrazolin-5-one]
melting point: 220 °C (dec.)

O=C1NN=C(C2CC2)C1=Cc1cc(Br)c[nH]1 [Example 115, 4-[(4-Bromopyrrol-2-yl)methylene]-3-cyclopropyl-2-pyrazolin-5-one]
melting point: 210 °C (dec.)

Cc1[nH]c(C=C2C(=O)NN=C2c2cnccn2)c(C)c1C(=O)O [Example 118, 4-[(4-Carboxy-3,5-dimethylpyrrol-2-yl)methylene]-3-pyrazinyl-2-pyrazolin-5-one]
melting point: 225 to 228 °C

Cc1[nH]c(C=C2C(=O)NN=C2C2CC2)c(C)c1C(=O)OCCN(C)C [Example 119, 3-Cyclopropyl-4-{[3,5-dimethyl-4-(2-dimethylaminoethyloxycarbonyl)pyrrol-2-yl]methylene}-2-pyrazolin-5-one]
melting point: 172 to 174 °C

Cc1[nH]c(C=C2C(=O)NN=C2c2cnccn2)c(C)c1C(=O)OCCN(C)C [Example 120, 4-{[3,5-Dimethyl-4(2-dimethylaminoethyloxycarbonyl)pyrrol-2-yl]methylene}-3-pyrazinyl-2-pyrazolin-5-one]
melting point: 223 to 225 °C

Cc1[nH]c(C=C2C(=O)NN=C2c2cnccn2)c(C)c1CN(C)C [Example 121, 4-[(3,5-Dimethyl-4-dimethylaminomethylpyrrol-2-yl)methylene]-3-pyrazinyl-2-pyrazolin-5-one]
melting point: 220 to 222 °C

Cc1[nH]c(C=C2C(=O)NN=C2c2cnccn2)c(C)c1CN(C)C.O=C(O)/C=C\C(=O)O [Example 122, 4-[(3,5-Dimethyl-4-dimethylaminomethylpyrrol-2-yl)methylene]-3-pyrazinyl-2-pyrazolin-5-one maleate]
melting point: 206 to 210 °C

Cc1cc(C)c(C=C2C(=O)NN=C2c2ccccn2)[nH]1 [Example 124, 4-[(3,5-Dimethylpyrrol-2-yl)methylene]-3-(2-pyridyl)-2-pyrazolin-5-one]
melting point: 228 to 230 °C

CCc1c(C)[nH]c(C=C2C(=O)NN=C2c2ccccn2)c1C [Example 125, 4-[(3,5-Dimethyl-4-ethylpyrrol-2-yl)methylene]-3-(2-pyridyl)-2-pyrazolin-5-one]
melting point: 184 to 186 °C

Cc1cc(C)c(C=C2C(=O)NN=C2c2ccco2)[nH]1 [Example 127, 4-[(3,5-dimethylpyrrol-2-yl)methylene]-3-(2-furyl)-2-pyrazolin-5-one]
melting point: 235 to 237 °C

Cc1[nH]c(C=C2C(=O)NN=C2c2cnccn2)c(C)c1CN1CCOCC1 [Example 128, 4-[(3,5-dimethyl-4-morpholinomethylpyrrol-2-yl)methylene]-3-pyrazinyl-2-pyrazolin-5-one]
melting point: 274 to 277 °C

Cc1cc(C)c(C=C2C(=O)NN=C2c2cccs2)[nH]1 [Example 129, 4-[(3,5-dimethylpyrrol-2-yl)methylene]-3-(2-thienyl)-2-pyrazolin-5-one]
melting point: 235 to 237 °C

CCOC(=O)c1c[nH]c(C=C2C(=O)NN=C2C2CC2)c1 [Example 130, 3-Cyclopropyl-4-[(4-ethoxycarbonylpyrrol-2-yl)methylene]-2-pyrazolin-5-one]
melting point: 192 to 194 °C

Cc1[nH]c(C=C2C(=O)NN=C2C2CC2)c(C)c1CNC(=O)C(F)(F)F [Example 131, 3-Cyclopropyl-4-[(3,5-dimethyl-4-trifluoroacetamidomethylpyrrol-2-yl)methylene]-2-pyrazolin-5-one]
melting point: 278 to 280 °C

Cc1[nH]c(C=C2C(=O)NN=C2C2CC2)c(C)c1CN [Example 132, 3-Cyclopropyl-4-[(4-aminomethyl-3,5-dimethylpyrrol-2-yl)methylene]-2-pyrazolin-5-one]
melting point: 217 to 219 °C

Cc1cc(C)c(C=C2C(=O)NN=C2c2nc3ccccc3s2)[nH]1 [Example 133, 3-(Benzothiazol-2-yl)-4-[(3,5-dimethylpyrrol-2-yl)methylene]-2-pyrazolin-5-one]
melting point: 295 to 297 °C

Cc1[nH]c(C=C2C(=O)NN=C2c2nc3ccccc3s2)c(C)c1CN1CCOCC1 [Example 134, 3-(Benzothiazol-2-yl)-4-[(3,5-dimethyl-4-morpholinomethylpyrrol-2-yl)methylene]-2-pyrazolin-5-one]
melting point: 285 °C (dec.)

CCc1c(C)[nH]c(C=C2C(=O)NN=C2c2cnccn2)c1C [Example 135, 4-[(3,5-Dimethyl-4-ethylpyrrol-2-yl)methylene]-3-pyrazinyl-2-pyrazolin-5-one]
melting point: 264 to 267 °C

CCOC(=O)c1c[nH]c(C=C2C(=O)NN=C2c2cnccn2)c1 [Example 136, 4-[(4-Ethoxycarbonylpyrrol-2-yl)methylene]-3-pyrazinyl-2-pyrazolin-5-one]
melting point: 155 to 157 °C

O=C1NN=C(c2cnccn2)C1=Cc1cc(C(=O)O)c[nH]1 [Example 137, 4-[(4-Carboxypyrrol-2-yl)methylene]-3-pyrazinyl-2-pyrazolin-5-one]
melting point: 230 to 232 °C

Cc1[nH]c(C=C2C(=O)NN=C2c2cnccn2)c(C)c1CNC(=O)C(F)(F)F [Example 139, 4-[(3,5-Dimethyl-4-trifluoroacetamidomethylpyrrol-2-yl)methylene]-3-pyrazinyl-2-pyrazolin-5-one]
melting point: 302 to 305 °C

CCOC(=O)c1c[nH]c(C=C2C(=O)NN=C2C2CC2)c1-c1ccccc1 [Example 140, 3-Cyclopropyl-4-[(4-ethoxycarbonyl-3-phenylpyrrol-2-yl)methylene]-2-pyrazolin-5-one]
melting point: 218 to 220 °C

Cc1[nH]c(C=C2C(=O)NN=C2c2ccco2)c(C)c1CN(C)C [Example 142, 4-[(3,5-Dimethyl-4-dimethylaminomethylpyrrol-2-yl)methylene]-3-(2-furyl)-2-pyrazolin-5-one]
melting point: 209 to 211 °C

Cc1[nH]c(C=C2C(=O)NN=C2c2cccs2)c(C)c1CN(C)C [Example 143, 4-[(3,5-Dimethyl-4-dimethylaminomethylpyrrol-2-yl)methylene]-3-(2-thienyl)-2-pyrazolin-5-one]
melting point: 208 to 210 °C

Cc1[nH]c(C=C2C(=O)NN=C2c2cccnc2)c(C)c1CN(C)C [Example 144, 4-[(3,5-Dimethyl-4-dimethylaminomethylpyrrol-2-yl)methylene]-3-(3-pyridyl)-2-pyrazolin-5-one]
melting point: 220 to 224 °C

CCOC(=O)c1c(C)[nH]c(C=C2C(=O)NN=C2c2ccccc2)c1C [Example 145, 4-[(3,5-Dimethyl-4-ethoxycarbonylpyrrol-2-yl)methylene]-3-phenyl-2-pyrazolin-5-one]
melting point: 216 to 217 °C

CCc1c(C)[nH]c(C=C2C(=O)NN=C2c2ccccc2)c1C [Example 146, 4-[(3,5-Dimethyl-4-ethylpyrrol-2-yl)methylene]-3-phenyl-2-pyrazolin-5-one]
melting point: 274 to 275 °C

CCOC(=O)c1c[nH]c(C=C2C(=O)NN=C2OCC)c1C(=O)OCC [Example 147, 4-[(3,4-Di(ethoxycarbonyl)pyrrol-2-yl)methylene]-3-ethoxy-2-pyrazolin-5-one]
melting point: 132 to 134 °C

CCOC(=O)c1c[nH]c(C=C2C(=O)NN=C2OCC)c1 [Example 148, 3-Ethoxy-4-[(4-ethoxycarbonylpyrrol-2-yl)methylene]-2-pyrazolin-5-one]
melting point: 212 to 216 °C

CCOC(=O)c1c(C)[nH]c(C=C2C(=O)NN=C2CCc2ccccn2)c1C [Example 149, 4-[(3,5-Dimethyl-4-ethoxycarbonylpyrrol-2-yl)methylene]-3-(2-pyridylethyl)-2-pyrazolin-5-one]
melting point: 180 to 182 °C

CCOC(=O)c1c(C)[nH]c(C=C2C(=O)NN=C2C(C)Cc2ccccc2)c1C (stereo not drawn) [Example 150, 4-[(3,5-Dimethyl-4-ethoxycarbonylpyrrol-2-yl)methylene]-3-(1-methyl-2-phenylethyl)-2-pyrazolin-5-one]
melting point: 168 to 170 °C

CCOC1=NNC(=O)C1=Cc1[nH]c(C)c(C(=O)O)c1C [Example 151, 4-[(4-Carboxy-3,5-dimethylpyrrol-2-yl)methylene]-3-ethoxy-2-pyrazolin-5-one]
melting point: 310 to 312 °C

CCOC1=NNC(=O)C1=Cc1ccc([N+](=O)[O-])[nH]1 [Example 152, 3-Ethoxy-4-[(5-nitropyrrol-2-yl)methylene]-2-pyrazolin-5-one]
melting point: 208 to 210 °C

CCOC1=NNC(=O)C1=Cc1cc([N+](=O)[O-])c[nH]1 [Example 153, 3-Ethoxy-4-[(4-nitropyrrol-2-yl)methylene]-2-pyrazolin-5-one]
melting point: 287 to 289 °C
